Test systems include PC-3 prostate; SK-MEL-2 melanoma; DU-145 prostate; SNB-75 CNS; CAKI-1 renal; MDA-MB-231 breast; SK-MEL-28 melanoma; IGROV1 ovarian; U251 CNS; SW-620 colon; HCT-116 colon; MDA-MB-435.
What all share (assay): NCI anticancer screen, dose series, 48 h

The values below come from PubChem BioAssay (NCI).

The structures appear in SMILES notation.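 Results reflect a 48-hour exposure of cells in 96-well plates to compound at five concentrations. TGI marks complete inhibition of growth.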 A value given as a limit tells only on which side of the number the result lay.

As to `COC(=O)C12CCC(C(=O)OC)(Cc3c(c4ccccc4n3S(=O)(=O)c3ccccc3)C1)C2=O` (centres undefined), the TGI with PC-3 prostate, with SK-MEL-2 melanoma, with DU-145 prostate, in the assay with SNB-75 CNS, with CAKI-1 renal and in the assay on MDA-MB-231 breast was above 100 µM in each case. Besides, the TGI was above 100 µM with SK-MEL-28 melanoma; above 100 µM in the assay with IGROV1 ovarian; above 100 µM in the assay with U251 CNS; above 100 µM in the assay with SW-620 colon; above 26.5 µM in the assay with HCT-116 colon; above 100 µM in the assay with MDA-MB-435.

Turning to `CC(C)(C)OC(=O)N1C(C2=COc3ccccc3O2)=COc2ccccc21`, the TGI is above 100 µM with PC-3 prostate; 53.2 µM with SK-MEL-2 melanoma; 78.2 µM in the assay with DU-145 prostate; above 100 µM in the assay with SNB-75 CNS; above 100 µM in the assay with CAKI-1 renal; 69.6 µM in the assay on MDA-MB-231 breast. In addition, the TGI in the assay on SK-MEL-28 melanoma is 87.5 µM; with IGROV1 ovarian, above 100 µM; in the assay on U251 CNS, above 100 µM; with SW-620 colon, 67.8 µM; with HCT-116 colon, 72.7 µM; in the assay with MDA-MB-435 it was above 100 µM.

Take `C/C(Cl)=N\OC(=O)Nc1ccc([N+](=O)[O-])cc1`: the TGI in the assay with PC-3 prostate came out at 29.9 µM; in the assay with SK-MEL-2 melanoma, 32.5 µM; in the assay with DU-145 prostate it was 31.8 µM; with SNB-75 CNS it was 31.4 µM; in the assay with CAKI-1 renal, 9.79 µM; in the assay on MDA-MB-231 breast, 37.1 µM. Also, the TGI came to 31.5 µM with SK-MEL-28 melanoma; 38.5 µM in the assay with IGROV1 ovarian; 33.8 µM with U251 CNS; 4.06 µM in the assay on SW-620 colon; 22.2 µM with HCT-116 colon; 32.9 µM in the assay on MDA-MB-435.

For the compound `Nn1c(CNc2ccc(-c3nnc(Nc4ccc(Cl)cc4)n3N)cc2)nnc1Nc1ccc(Cl)cc1`, the TGI in the assay on PC-3 prostate, in the assay with SK-MEL-2 melanoma, in the assay on DU-145 prostate, with SNB-75 CNS, in the assay on CAKI-1 renal and in the assay with MDA-MB-231 breast was above 100 µM each time. For the same compound, the TGI in the assay on SK-MEL-28 melanoma, with IGROV1 ovarian, in the assay on U251 CNS, in the assay on SW-620 colon, with HCT-116 colon and with MDA-MB-435 was above 100 µM in each case.

Regarding `O=c1oc2ncccc2n1Cc1ccc([N+](=O)[O-])cc1`, the TGI in the assay with PC-3 prostate, with SK-MEL-2 melanoma, in the assay on DU-145 prostate, with SNB-75 CNS, in the assay with CAKI-1 renal and in the assay with MDA-MB-231 breast was above 100 µM each time. Moreover, the TGI in the assay on SK-MEL-28 melanoma, with IGROV1 ovarian, in the assay on U251 CNS, in the assay with SW-620 colon, with HCT-116 colon and with MDA-MB-435 was above 100 µM in each case.

Turning to `CN1CN(c2ccccc2)C2(CCNCC2)C1=O`, the TGI in the assay on PC-3 prostate, with SK-MEL-2 melanoma, in the assay on DU-145 prostate, in the assay on SNB-75 CNS, in the assay with CAKI-1 renal and with MDA-MB-231 breast was above 100 µM in each case. Besides, the TGI in the assay with SK-MEL-28 melanoma, in the assay with IGROV1 ovarian, with U251 CNS, in the assay with SW-620 colon, in the assay on HCT-116 colon and in the assay with MDA-MB-435 was above 100 µM in each case.

As to `O=C1/C(=C/c2ccc(O)cc2)NC(=S)N1CN1CCCCC1`, the TGI in the assay with PC-3 prostate, in the assay on SK-MEL-2 melanoma, with DU-145 prostate, with SNB-75 CNS, in the assay with MDA-MB-231 breast and in the assay on SK-MEL-28 melanoma was above 100 µM each time. Also, the TGI with IGROV1 ovarian, in the assay with U251 CNS, in the assay with SW-620 colon, in the assay on HCT-116 colon and in the assay with MDA-MB-435 was above 100 µM throughout.

Turning to `CCCCC1Cc2cc(O)ccc2-c2n1c1cc(O)ccc1[n+]2C` (centres undefined) (tested in a mixture with another compound), the TGI with PC-3 prostate, in the assay on SK-MEL-2 melanoma, with DU-145 prostate, with SNB-75 CNS, in the assay on CAKI-1 renal and in the assay with MDA-MB-231 breast was above 100 µM in each case. For the same compound, the TGI in the assay with SK-MEL-28 melanoma was 74.3 µM; in the assay on IGROV1 ovarian it was above 83.8 µM; with U251 CNS, above 62.3 µM; in the assay on SW-620 colon, above 100 µM; with HCT-116 colon it was above 100 µM; in the assay on MDA-MB-435 it was 59.6 µM.

Regarding `ON=C1CCCCC(=NO)CCCC1`, the TGI in the assay on PC-3 prostate, in the assay with SK-MEL-2 melanoma, in the assay with DU-145 prostate, with SNB-75 CNS, in the assay on CAKI-1 renal and with MDA-MB-231 breast was above 100 µM each time. In addition, the TGI in the assay with SK-MEL-28 melanoma, with U251 CNS, in the assay with SW-620 colon, in the assay with HCT-116 colon and in the assay on MDA-MB-435 was above 100 µM throughout.

With `CC1=NN(c2nc(N)nc(CS(C)(=O)=O)n2)C(C)(C)C1`, the TGI in the assay with PC-3 prostate, in the assay with SK-MEL-2 melanoma, in the assay with DU-145 prostate, in the assay on SNB-75 CNS, in the assay with CAKI-1 renal and in the assay with MDA-MB-231 breast was above 100 µM each time. For the same compound, the TGI in the assay with SK-MEL-28 melanoma, with IGROV1 ovarian, in the assay with U251 CNS, with SW-620 colon, with HCT-116 colon and in the assay on MDA-MB-435 was above 100 µM throughout.

Regarding `C=C1c2nc3ccccc3n2C=C(c2ccc(Cl)cc2)N1c1ccc(OCCN2CCOCC2)cc1`, the TGI in the assay on PC-3 prostate was above 100 µM; with SK-MEL-2 melanoma it was 29.1 µM; in the assay on DU-145 prostate, above 100 µM; with SNB-75 CNS, above 100 µM; with MDA-MB-231 breast it was above 100 µM; in the assay with SK-MEL-28 melanoma, above 100 µM. In addition, the TGI in the assay on IGROV1 ovarian, in the assay on U251 CNS, with SW-620 colon, in the assay on HCT-116 colon and in the assay with MDA-MB-435 was above 100 µM each time.
